Measured values taken from patent US20240182445A1 (ONO PHARMACEUTICAL CO., LTD., priority 2019, published 2024).

Target: T1, human TREK-1 (Homo sapiens, UniProt O95069)
T1 construct: expressed in transfected cells
T1 sequence (O95069 1-426): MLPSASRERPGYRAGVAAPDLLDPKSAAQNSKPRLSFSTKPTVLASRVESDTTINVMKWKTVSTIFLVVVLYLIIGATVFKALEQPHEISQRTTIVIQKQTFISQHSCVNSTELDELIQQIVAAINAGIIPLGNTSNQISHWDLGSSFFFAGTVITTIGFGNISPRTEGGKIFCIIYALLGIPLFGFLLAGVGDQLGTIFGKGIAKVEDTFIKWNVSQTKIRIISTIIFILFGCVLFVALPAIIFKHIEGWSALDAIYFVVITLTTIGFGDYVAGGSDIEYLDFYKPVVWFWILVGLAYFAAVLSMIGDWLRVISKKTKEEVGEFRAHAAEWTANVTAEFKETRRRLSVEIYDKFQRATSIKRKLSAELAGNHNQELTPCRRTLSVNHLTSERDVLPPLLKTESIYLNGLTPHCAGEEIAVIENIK
Assay: TREK-1 Thallium (Tl+) flux assay, Method 1
Assay type: cell-based
Settings: TREK-1 Thallium (Tl+) flux assay; no *^12 (Method 2) mark on these rows
Outline: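 CHO-K1 cells stably expressing human TREK-1, loaded with Thallos dye, received compound or 0.3% DMSO vehicle for 10 min before thallium stimulus buffer. ΔRatio is fluorescence at 25 s after thallium addition over mean pre-addition fluorescence; % inhibition calculated from it.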

IC50 [nM]	Structure (SMILES)
380	CC(=O)N1CCC(Cn2ncc(Cl)c2C(=O)Nc2ncc(C#Cc3ccc(F)cc3)cc2C)C(C)C1 (centres unmarked) [Compound 244, 1-((1-acetyl-3-methylpiperidin-4-yl)methyl)-4-chloro-N-(5-((4-fluorophenyl)ethynyl)-3-methylpyridin-2-yl)-1H-pyrazole-5-carboxamide]
390	N#CC1CC(n2ncc(Cl)c2C(=O)Nc2c(F)cc(C#Cc3ccccc3)cc2F)C1 (centres unmarked) [Compound 245, 4-chloro-1-(3-cyanocyclobutyl)-N-(2,6-difluoro-4-(phenylethynyl)phenyl)-1H-pyrazole-5-carboxamide]
390	Cc1cc(C#Cc2ccc(F)cc2)cnc1NC(=O)c1c(Cl)cnn1CCN1CCN(C(=O)C2COCCO2)CC1 (centres unmarked) [Compound 246, 1-(2-(4-(1,4-dioxane-2-carbonyl)piperazin-1-yl)ethyl)-4-chloro-N-(5-((4-fluorophenyl)ethynyl)-3-methylpyridin-2-yl)-1H-pyrazole-5-carboxamide]
390	CC(C)(C)C(=O)N1CCC(n2ncc(Cl)c2C(=O)Nc2ncc(C#Cc3cccs3)cc2F)CC1 [Compound 247, 4-chloro-N-(3-fluoro-5-(thiophen-2-ylethynyl)pyridin-2-yl)-1-(1-pivaloylpiperidin-4-yl)-1H-pyrazole-5-carboxamide]
390	CC(=O)N1CCCC(Cn2ncc(Cl)c2C(=O)Nc2ncc(C#Cc3ccc(F)cc3)cc2C)C1 (centres unmarked) [Compound 248, 1-((1-acetylpiperidin-3-yl)methyl)-4-chloro-N-(5-((4-fluorophenyl)ethynyl)-3-methylpyridin-2-yl)-1H-pyrazole-5-carboxamide]
400	Cc1cc(C#Cc2cccc(F)c2)cnc1NC(=O)c1c(Cl)cnn1CC1CCN(C(=O)C(C)C)CC1 [Compound 249, 4-chloro-N-(5-((3-fluorophenyl)ethynyl)-3-methylpyridin-2-yl)-1-((1-isobutyrylpiperidin-4-yl)methyl)-1H-pyrazole-5-carboxamide]
400	O=C(Nc1ncc(C#Cc2cccs2)cc1F)c1c(Cl)cnn1CCC1CCN(C(=O)C2CC2)CC1 [Compound 250, 4-chloro-1-(2-(1-(cyclopropanecarbonyl)piperidin-4-yl)ethyl)-N-(3-fluoro-5-(thiophen-2-ylethynyl)pyridin-2-yl)-1H-pyrazole-5-carboxamide]
400	Cc1cc(C#Cc2ccccc2)cnc1NC(=O)c1c(Cl)cnn1CC1(C)CCN(C(=O)C2COCCO2)CC1 (centres unmarked) [Compound 251, 1-((1-(1,4-dioxane-2-carbonyl)-4-methylpiperidin-4-yl)methyl)-4-chloro-N-(3-methyl-5-(phenylethynyl)pyridin-2-yl)-1H-pyrazole-5-carboxamide]
410	O=C(Nc1c(F)cc(C#Cc2ccccc2)cc1F)c1c(Cl)cnn1C[C@H]1COCCO1 [Compound 252, (S)-1-((1,4-dioxan-2-yl)methyl)-4-chloro-N-(2,6-difluoro-4-(phenylethynyl)phenyl)-1H-pyrazole-5-carboxamide]
410	N#CCCCn1ncc(Cl)c1C(=O)Nc1c(F)cc(C#Cc2ccccc2)cc1F [Compound 253, 4-chloro-1-(3-cyanopropyl)-N-(2,6-difluoro-4-(phenylethynyl)phenyl)-1H-pyrazole-5-carboxamide]
420	Cc1cc(C#Cc2ccccc2)cnc1NC(=O)c1c(Cl)cnn1C1CC(C#N)C1 (centres unmarked) [Compound 254, 4-chloro-1-(3-cyanocyclobutyl)-N-(3-methyl-5-(phenylethynyl)pyridin-2-yl)-1H-pyrazole-5-carboxamide]
420	CC(C)(C)OC(=O)N1CCC(n2ncc(Cl)c2C(=O)Nc2ncc(C#Cc3ccccc3)cc2F)CC1 [Compound 255, tert-butyl 4-(4-chloro-5-((3-fluoro-5-(phenylethynyl)pyridin-2-yl)carbamoyl)-1H-pyrazol-1-yl)piperidine-1-carboxylate]
420	CC(=O)N1CCC(Cn2ncc(Cl)c2C(=O)Nc2ncc(C#Cc3ccc(F)cc3)cc2C)CC1 [Compound 256, 1-((1-acetylpiperidin-4-yl)methyl)-4-chloro-N-(5-((4-fluorophenyl)ethynyl)-3-methylpyridin-2-yl)-1H-pyrazole-5-carboxamide]
420	CC(C)(C)OC(=O)N1CCN(CCn2ncc(Cl)c2C(=O)Nc2ncc(C#Cc3ccccc3)cc2F)CC1 [Compound 257, tert-butyl 4-(2-(4-chloro-5-((3-fluoro-5-(phenylethynyl)pyridin-2-yl)carbamoyl)-1H-pyrazol-1-yl)ethyl)piperazine-1-carboxylate]
420	Cc1cc(C#Cc2ccc(F)cc2)cnc1NC(=O)c1c(Cl)cnn1C1CCN(C(=O)CC(C)C)C1 (centres unmarked) [Compound 258, 4-chloro-N-(5-((4-fluorophenyl)ethynyl)-3-methylpyridin-2-yl)-1-(1-(3-methylbutanoyl)pyrrolidin-3-yl)-1H-pyrazole-5-carboxamide]
260	CC(=O)N1C[C@H]2C[C@H](n3ncc(Cl)c3C(=O)Nc3ncc(C#Cc4ccccc4)cc3C)C[C@H]2C1 [Compound 260, 1-[(3aR,5s,6aS)-2-acetyloctahydrocyclopenta[c]pyrrol-5-yl]-4-chloro-N-[3-methyl-5-(phenylethynyl)pyridin-2-yl]-1H-pyrazole-5-carboxamide]
430	CC(=O)N1CCC[C@H](Cn2ncc(Cl)c2C(=O)Nc2ncc(C#Cc3ccccc3)cc2F)C1 [Compound 262, (S)-1-((1-acetylpiperidin-3-yl)methyl)-4-chloro-N-(3-fluoro-5-(phenylethynyl)pyridin-2-yl)-1H-pyrazole-5-carboxamide]
430	Cc1cc(C#Cc2ccccc2)cnc1NC(=O)c1c(Cl)cnn1C[C@H]1CCCN(C(=O)C(C)C)C1 [Compound 263]
430	Cc1cc(C#Cc2ccc(F)cc2)cnc1NC(=O)c1c(Cl)cnn1CC1CCCN(C(=O)C2CC2C)C1 (centres unmarked) [Compound 264, 4-chloro-N-(5-((4-fluorophenyl)ethynyl)-3-methylpyridin-2-yl)-1-((1-(2-methylcyclopropane-1-carbonyl)piperidin-3-yl)methyl)-1H-pyrazole-5-carboxamide]
430	Cc1cc(C#Cc2ccccc2)cnc1NC(=O)c1c(Cl)cnn1CC1CCN(C(=O)OC(C)(C)C)CC1C (centres unmarked) [Compound 265, tert-butyl 4-((4-chloro-5-((3-methyl-5-(phenylethynyl)pyridin-2-yl)carbamoyl)-1H-pyrazol-1-yl)methyl)-3-methylpiperidine-1-carboxylate]
440	N#CC1CC(n2ncc(Cl)c2C(=O)Nc2ncc(C#Cc3ccccc3)cc2F)C1 (centres unmarked) [Compound 266, 4-chloro-1-(3-cyanocyclobutyl)-N-(3-fluoro-3-(phenylethynyl)pyridin-2-yl)-1H-pyrazole-5-carboxamide]
450	Cc1cc(C#Cc2ccccc2)cnc1NC(=O)c1c(Cl)cnn1CC1(C#N)CC1 [Compound 267, 4-chloro-1-((1-cyanocyclopropyl)methyl)-N-(3-methyl-5-(phenylethynyl)pyridin-2-yl)-1H-pyrazole-5-carboxamide]
450	Cc1cc(C#Cc2ccccc2)cnc1NC(=O)c1c(Cl)cnn1C1CCN(C(=O)C(F)(F)F)CC1 [Compound 268, 4-chloro-N-[3-methyl-5-(2-phenylethynyl)-2-pyridyl]-2-[1-(2,2,2-trifluoroacetyl)-4-piperidyl]pyrazole-3-carboxamide]
450	Cc1cc(C#Cc2ccc(F)cc2)cnc1NC(=O)c1c(Cl)cnn1CC1(C#N)CCN(C(=O)OC(C)(C)C)CC1 [Compound 269, tert-butyl 4-((4-chloro-5-((5-((4-fluorophenyl)ethynyl)-3-methylpyridin-2-yl)carbamoyl)-1H-pyrazol-1-yl)methyl)-4-cyanopiperidine-1-carboxylate]
460	Cn1ncc2cc(-n3ncc(Cl)c3C(=O)Nc3ncc(C#Cc4ccccc4)cc3F)ccc21 [Compound 270, 4-chloro-N-(3-fluoro-5-(phenylethynyl)pyridin-2-yl)-1-(1-methyl-1H-indazole-5-yl)-1H-pyrazole-5-carboxamide]
460	Cc1cc(C#Cc2ccc(F)cc2)cnc1NC(=O)c1c(Cl)cnn1CC1CCCN(C(=O)C2CC2)C1 (centres unmarked) [Compound 271, 4-chloro-1-((1-(cyclopropanecarbonyl)piperidin-3-yl)methyl)-N-(5-((4-fluorophenyl)ethynyl)-3-methylpyridin-2-yl)-1H-pyrazole-5-carboxamide]
460	Cc1cc(C#Cc2ccc(F)cc2)cnc1NC(=O)c1c(Cl)cnn1CC1CCCN(C(=O)C(C)C)C1 (centres unmarked) [Compound 272, 4-chloro-N-(5-((4-fluorophenyl)ethynyl)-3-methylpyridin-2-yl)-1-((1-isobutyrylpiperidin-3-yl)methyl)-1H-pyrazole-5-carboxamide]
470	Cc1cc(C#Cc2ccccc2)cnc1NC(=O)c1c(Cl)cnn1CC1CN(C(=O)C2CC2)C1 [Compound 274, 4-chloro-1-((1-(cyclopropanecarbonyl)azetidin-3-yl)methyl)-N-(3-methyl-5-(phenylethynyl)pyridin-2-yl)-1H-pyrazole-5-carboxamide]
480	O=C(Nc1ncc(C#Cc2ccccc2)cc1F)c1c(Cl)cnn1[C@H]1CCOC1 [Compound 275, (S)-4-chloro-N-(3-fluoro-5-(phenylethynyl)pyridin-2-yl)-1-(tetrahydrofuran-3-yl)-1H-pyrazole-5-carboxamide]
